Laboratory results reported in US20200121620A1, “SENOLYTIC COMPOUNDS” (UNITED KINGDOM RESEARCH AND INNOVATION, priority 2017, published 2020).

Key:
[1] = tested on: senescent human fibroblasts; details: Lui et al, Sci Rep 2015; cited from earlier work
[2] = tested on: IMR90 ER:RAS cells; test: Senolytic activity in IMR90 ER:RAS cells undergoing oncogene-induced senescence (4OHT) vs DMSO-treated non-senescent cells; details: 4OHT vs DMSO; FIG. 11
Method: FIG. 1: (A) IMR90 ER:RAS cells were induced to undergo senescence by treating them with 100 nM 4OHT for 6 days. At that point, 10 μM of the indicated drugs was added. In parallel, the same treatments were carried out in IMR90 ER:RAS cells treated with DMSO (−4OHT). […] Cells were fixed at day 6, 8 and 10 after 4OHT induction and stained with crystal violet to assess cell viability. T, Tyr-AG879; P, PF-573228; C, Cyclosporine. (B) A similar experiment to (A) was conducted and cells at day 10 post-induction were fixed and stained with DAPI to assess cell numbers
In the setup used, IMR90 ER:RAS cells were treated with 100 nM 4OHT to induce OIS (oncogene induced senescence) and activate the ER:RAS fusion protein. 6 days after 4OHT induction (+4OHT), once cells were fully senescent, the agents to be tested were added at a concentration of 10 μM, and cell numbers were assessed 4 days after by DAPI stained couple to automated microscopy. Alternatively, cells were fixed and stained with crystal violet. In parallel, the same treatments were carried out in IMR90 ER:RAS cells treated with DMSO (−4OHT).
IMR90 ER:RAS cells were induced to undergo senescence by treating them with 100 nM 4OHT for 6 days. At that point, 10 μM of the indicated drugs was added. In parallel, the same treatments were carried out in IMR90 ER:RAS cells treated with DMSO (−4OHT). […] Cells were fixed at day 6, 8 and 10 after 4OHT induction and stained with crystal violet to assess cell viability. A similar experiment was conducted and cells at day 10 post-induction were fixed and stained with DAPI to assess cell numbers (see FIG. 1).

[3] = tested on: IMR90 ER:RAS E6/E7 cells; test: Killing of IMR90 ER:RAS E6/E7 cells (RAS signalling without senescence); assay type: cell-based, human; details: 1, 5 and 10 μM; 4OHT vs DMSO; FIG. 5
Method: In these experiments the compounds were tested side by side with a control ABT-263 (the de facto gold standard senolytic compound) (Chang et al., 2016; Yosef et al., 2016; Zhu et al., 2016). Experiments were conducted to test the ability of the compounds to behave as senolytics during OIS (using IMR90 ER:RAS, FIG. 3 and HMEC hTERT ER:RAS, FIG. 4). […] To understand whether the selective killing of senescent IMR90 ER:RAS was a consequence of senescence induction or of activation of RAS signaling, experiments were conducted in isogenic IMR90 ER:RAS E6/E7 cells. In these cells, RAS signalling is induced by adding 100 nM 4OHT that activates the ER:RAS fusion protein. However, expression of the E6/E7 protein prevents senescence induction.

[4] = tested on: senescent cells in the lung; test: Elimination of senescent cells induced by whole body irradiation in mice; assay type: in vivo; details: 6 Gray whole body irradiation; 2 months later treated for 4 consecutive days; FIG. 16
Text: (A) Experimental set up, mice (n=5 per group) were irradiated with 6 Gray to induce senescence. […] (B) Cryosections of lungs obtained from control and irradiated mice were stained with hematoxilin and eosin (to reveal tissue architecture), and SA-β-Gal (to reveal senescent cells). Senescent cells accumulate in the bronchioles of irradiated mice. (C) Quantification of the lung area positive for SA-β-Gal staining. […] (D). Representative pictures of lung cryosections.
Whole-body irradiation is known to cause senescence. In irradiated mice, senescent cells accumulate in different tissues, including the lung (Chang et al., 2016; Yosef et al., 2016).

[5] = tested on: senescent cells in the lung; test: Elimination of senescent cells induced by Doxorubicin treatment in mice; assay type: in vivo; details: single dose 10 mg/kg Doxorubicin; 2 months later treated for 4 consecutive days; FIG. 15
Method: (A) Experimental set up, mice (n=5 per group) were administered with a single dose of 10 mg/kg of Doxorubicin. […] (B) Cryosections of lungs obtained from control and doxorubicin treated mice were stained with hematoxilin and eosin (to reveal tissue architecture), and SA-β-Gal (to reveal senescent cells). Senescent cells accumulate in the bronchioles of doxorubicin-treated mice. (C) Quantification of the lung area positive for SA-β-Gal staining. […] (D) Representative pictures of lung cryosections.
Further experiments investigated whether the senolytic agents were capable of eliminating senescent cells in vivo. […] These senescent cells are responsible for some of the side-effects associated with chemotherapy and can fuel the growth of cancerous cells (Demaria et al., 2016). […] Doxorubicin treatment induces senescence in the lung.

[6] = use in vivo; cited from earlier work

Structure (SMILES)	senescence-associated secretory phenotype (SASP) [1]	senolytic effect of statins, preferential killing of cells undergoing OIS [2]	selectivity for killing IMR90 ER:RAS E6/E7 [3]	lung area positive for SA-β-Gal staining (senescent cells) [4]	lung area positive for SA-β-Gal staining (senescent cells) [5]	side-effect [6]
CCC(C)(C)C(=O)O[C@H]1C[C@@H](C)C=C2C=C[C@H](C)[C@H](CC[C@@H]3C[C@@H](O)CC(=O)O3)[C@H]21 [Simvastatin]	decrease the senescence-associated secretory phenotype (SASP)	behaves as a senolytic in a concentration dependent manner	–	–	–	–
c1ccc2c(c1)[IH]c1ccccc1-2 [Diphenyleneiodonium chloride]	–	–	displayed selectivity for killing IMR90 ER:RAS E6/E7	partially eliminated	–	–
CC1(C)CCC(c2ccc(Cl)cc2)=C(CN2CCN(c3ccc(C(=O)NS(=O)(=O)c4ccc(N[C@H](CCN5CCOCC5)CSc5ccccc5)c(S(=O)(=O)C(F)(F)F)c4)cc3)CC2)C1 [ABT-263]	–	–	–	partially eliminated	partially eliminated	significant thrombocytopenia
